Results: ChEMBL document CHEMBL1134665, “Synthesis and antitumor activity of ester-modified analogues of bengamide B” (J Med Chem, 2001)

Tests used:
MDA-MB-435 [1] = test: In vivo percent T/C against MDA-MB-435 human breast carcinoma cells implanted sc in mice at a dose 52 umol/Kg; format: functional
MDA-MB-435 [2] = test: In vivo percent T/C against MDA-MB-435 human breast carcinoma cells implanted sc in mice at a dose 26 umol/kg; format: functional
MDA-MB-435 [3] = test: In vivo for percent body weight against MDA-MB-435 human breast carcinoma cells implanted sc in mice at a dose 52 umol/Kg; format: functional
MDA-MB-435 [4] = test: (§1) Antiproliferative activity against MDA-MB-435 human breast carcinoma cells in vitro using MDA-MB-435 monolayer growth assay.; format: functional, cell-based
MDA-MB-435 [5] = test: In vivo for percent body weight against MDA-MB-435 human breast carcinoma cells implanted sc in mice at a dose 26 umol/kg; format: functional
MDA-MB-435 [6] = test: In vivo percent T/C against MDA-MB-435 human breast carcinoma cells implanted sc in mice at a dose 33 umol/Kg; format: functional
MDA-MB-435 [7] = test: In vivo percent body weight versus MDA-MB-435 human breast carcinoma cells implanted sc in mice at a dose 33 umol/Kg; format: functional
MDA-MB-435 [8] = test: In vivo percent T/C against MDA-MB-435 human breast carcinoma cells implanted sc in mice at a dose 10 umol/kg; format: functional
MDA-MB-435 [9] = test: as §1; format: functional
MDA-MB-435 [10] = test: In vivo percent body weight versus MDA-MB-435 human breast carcinoma cells implanted sc in mice at a dose 10 umol/kg; format: functional
MDA-MB-435 [11] = test: In vivo percent T/C against MDA-MB-435 human breast carcinoma cells implanted sc in mice at a dose 100 umol/kg; format: functional
MDA-MB-435 [12] = test: In vivo for percent body weight against MDA-MB-435 human breast carcinoma cells implanted sc in mice at a dose 100 umol/Kg; format: functional
MDA-MB-435 [13] = test: In vivo for percent body weight against MDA-MB-435 human breast carcinoma cells implanted sc in mice at a dose m100 umol/Kg; format: functional
MDA-MB-435 [14] = test: In vivo percent T/C against MDA-MB-435 human breast carcinoma cells implanted sc in mice at a dose 100 umol/Kg; format: functional
MDA-MB-435 [15] = test: In vivo percent T/C against MDA-MB-435 human breast carcinoma cells implanted sc in mice at a dose 279 umol/Kg; format: functional
MDA-MB-435 [16] = test: In vivo percent T/C against MDA-MB-435 human breast carcinoma cells implanted sc in mice at a dose 28 umol/kg; format: functional
MDA-MB-435 [17] = test: In vivo for percent body weight against MDA-MB-435 human breast carcinoma cells implanted sc in mice at a dose 84 umol/kg; format: functional
MDA-MB-435 [18] = test: In vivo for percent body weight against MDA-MB-435 human breast carcinoma cells implanted sc in mice at a dose 279 umol/Kg; format: functional
MDA-MB-435 [19] = test: In vivo for percent body weight against MDA-MB-435 human breast carcinoma cells implanted sc in mice at a dose 28 umol/kg; format: functional
MDA-MB-435 [20] = test: In vivo percent T/C against MDA-MB-435 human breast carcinoma cells implanted sc in mice at a dose 84 umol/Kg; format: functional
MDA-MB-435 [21] = test: In vivo percent T/C against MDA-MB-435 human breast carcinoma cells implanted sc in mice at a dose 2 umol/kg; format: functional
MDA-MB-435 [22] = test: In vivo for percent body weight against MDA-MB-435 human breast carcinoma cells implanted sc in mice at a dose 2 umol/kg; format: functional

Compound | T/C (MDA-MB-435 [6]) [%] | Body weight (MDA-MB-435 [7]) [%] | T/C (MDA-MB-435 [8]) [%] | IC50 (MDA-MB-435 [9]) [nM] | Body weight (MDA-MB-435 [10]) [%] | other results
CO[C@@H](C(=O)NC1CC[C@H](O)CN(C)C1=O)[C@H](O)[C@@H](O)[C@H](O)/C=C/C(C)C (stereo partly specified) |  |  |  |  |  | T/C (MDA-MB-435 [1]): 41%; T/C (MDA-MB-435 [2]): 42%; Body weight (MDA-MB-435 [3]): 0.8%; IC50 (MDA-MB-435 [4]): 2900 nM; Body weight (MDA-MB-435 [5]): 9.5%
CO[C@@H](C(=O)NC1CC[C@@H](OC(=O)C2CCCCCC2)CNC1=O)[C@H](O)[C@@H](O)[C@H](O)/C=C/C(C)(C)C (stereo partly specified) | <28 | 8.4 | <39 | 20 | 10.1 | 
CO[C@@H](C(=O)NC1CC[C@@H](OC(=O)C2CCCCC2)CNC1=O)[C@H](O)[C@@H](O)[C@H](O)/C=C/C(C)(C)C (stereo partly specified) | <7 | 3.5 | <58 | 4 | 10.5 | T/C (MDA-MB-435 [11]): <29%; Body weight (MDA-MB-435 [12]): -2.6%
CO[C@@H](C(=O)NC1CC[C@@H](OC(=O)CCc2ccccc2)CNC1=O)[C@H](O)[C@@H](O)[C@H](O)/C=C/C(C)(C)C (stereo partly specified) | <12 | 5.3 | <53 | 10 | 6 | Body weight (MDA-MB-435 [13]): -3.1%; T/C (MDA-MB-435 [14]): <58%
CO[C@@H](C(=O)NC1CCCCN(C)C1=O)[C@H](O)[C@@H](O)[C@H](O)/C=C/C(C)C (stereo partly specified) |  |  |  |  |  | IC50 (MDA-MB-435 [4]): 2900 nM
CCCCCCCCCCCCCOC(=O)[C@H]1CCC(NC(=O)[C@H](OC)[C@H](O)[C@@H](O)[C@H](O)/C=C/C(C)C)C(=O)NC1 (stereo partly specified) |  |  |  |  |  | IC50 (MDA-MB-435 [4]): 1 nM
CO[C@@H](C(=O)NC1CC[C@@H](OC(=O)Cc2cccnc2)CNC1=O)[C@H](O)[C@@H](O)[C@H](O)/C=C/C(C)(C)C (stereo partly specified) | 82 | 6.8 | 69 | 5850 | 6.4 | 
CO[C@@H](C(=O)NC1CC[C@@H](OC(=O)CCc2cccnc2)CNC1=O)[C@H](O)[C@@H](O)[C@H](O)/C=C/C(C)(C)C (stereo partly specified) | <44 | 3 | 92 | 460 | 10.1 | 
CCCCCCCCCCc1ccc(C(=O)O[C@@H]2CCC(NC(=O)[C@H](OC)[C@H](O)[C@@H](O)[C@H](O)/C=C/C(C)(C)C)C(=O)NC2)cc1 (stereo partly specified) | <6 | 2.6 | 76 | 30 | 6 | 
CO[C@@H](C(=O)NC1CC[C@@H](OC(=O)c2ccccc2)CNC1=O)[C@H](O)[C@@H](O)[C@H](O)/C=C/C(C)(C)C (stereo partly specified) | 80 | 5.6 | 93 | 370 | 5.5 | 
CCCCCc1ccc(C(=O)O[C@@H]2CCC(NC(=O)[C@H](OC)[C@H](O)[C@@H](O)[C@H](O)/C=C/C(C)(C)C)C(=O)NC2)cc1 (stereo partly specified) | 91 | 2.6 | 111 | 20 | 6 | 
CO[C@@H](C(=O)NC1CC[C@@H](OC(=O)C2CCCC2)CNC1=O)[C@H](O)[C@@H](O)[C@H](O)/C=C/C(C)(C)C (stereo partly specified) | <13 | 3 | 67 | 130 | 7.6 | 
CO[C@@H](C(=O)NC1CC[C@@H](OC(=O)/C=C/c2ccccc2)CNC1=O)[C@H](O)[C@@H](O)[C@H](O)/C=C/C(C)(C)C (stereo partly specified) | <63 | 7.5 | <64 | 20 | 7.4 | 
CCCCCCCCCCCCCC(=O)O[C@H]1CCC(NC(=O)[C@H](OC)[C@H](O)[C@@H](O)[C@H](O)/C=C/C(C)(C)C)C(=O)N(C)C1 (stereo partly specified) | <46 | 6.4 | <58 | 10 | 6.1 | 
CCCCCCCCCCOc1ccc(C(=O)O[C@@H]2CCC(NC(=O)[C@H](OC)[C@H](O)[C@@H](O)[C@H](O)/C=C/C(C)(C)C)C(=O)NC2)cc1 (stereo partly specified) | 2 | -0.9 | <64 | 10 | 8.8 | 
CO[C@@H](C(=O)NC1CC[C@@H](OC(=O)CC2CCCCC2)CNC1=O)[C@H](O)[C@@H](O)[C@H](O)/C=C/C(C)(C)C (stereo partly specified) | <34 | 3.5 | <47 | 60 | 4.6 | 
CO[C@@H](C(=O)NC1CC[C@@H](OC(=O)Cc2ccccc2)CNC1=O)[C@H](O)[C@@H](O)[C@H](O)/C=C/C(C)(C)C (stereo partly specified) | <43 | 3.9 | 72 | 260 | 10.6 | 
CCCCCCCCCCCCCC(=O)O[C@@H]1CCC(NC(=O)[C@H](OC)[C@H](O)[C@@H](O)[C@H](O)/C=C/C(C)(C)C)C(=O)NC1 (stereo partly specified) | <4 | 5.7 | <41 | < 10 | 7.4 | 
CO[C@@H](C(=O)NC1CCCCNC1=O)[C@H](O)[C@@H](O)[C@H](O)/C=C/C(C)C (stereo partly specified) |  |  |  |  |  | T/C (MDA-MB-435 [15]): <19%; T/C (MDA-MB-435 [16]): 62%; Body weight (MDA-MB-435 [17]): 7.1%; IC50 (MDA-MB-435 [4]): 3300 nM; Body weight (MDA-MB-435 [18]): 6.7%; Body weight (MDA-MB-435 [19]): 8.4%; T/C (MDA-MB-435 [20]): 62%
COc1cccc2c1C(=O)c1c(O)c3c(c(O)c1C2=O)C[C@@](O)(C(=O)CO)C[C@@H]3O[C@H]1C[C@H](N)[C@H](O)[C@H](C)O1 [DOXORUBICIN] |  |  |  | 400 |  | T/C (MDA-MB-435 [21]): <44%; Body weight (MDA-MB-435 [22]): 3.9%
